Results from patent US10428060B2, “PI-kinase inhibitors with anti-infective activity” (The Board of Trustees of the Leland Stanford Junior …, priority 2011, dated 2019).
pEC50, pIC50: −log10 of the molar value.

biological target: T1, PI4KIIIB (Bos taurus, UniProt O02810); assay: PI4KIIIB kinase assay; format: biochemical, bovine; conditions: not given
T1 construct: made in house; host or cells: COS-7 cells, transient transfection, anti-HA immunoprecipitate on protein G Sepharose beads
Method: In the assays described here, p110α-p85 complex and p110γ were acquired from Millipore. Assays were performed with Lα-phosphatidylinositol (Avanti) as described in Knight et al. Nat Protoc. […] Inhibitor series were prepared 10% DMSO as 5× stocks for the assay. […] COS-7 cells were cultured in 10 cm dishes and transfected at 70% confluence with 10 μg of plasmid DNA (HA-tagged bovine PI4KIIIβ, HA-tagged human PI4KIIIα) using Lipofectamine 2000 and 5 ml Opti-MEM following the manufacturer's instructions. After 5 hours the transfection medium was replaced with 10 ml complete DMEM. 36 hrs post transfection, cells were washed once with 5 ml PBS (pH 7.4) and lysed in 1 ml of lysis buffer (1) on ice. […] To the lysates was added 200 μl of protein G Sepharose 4 fast flow beads that were prewashed with PBS and lysis buffer and 2 μg of anti-HA antibody. The tubes were then incubated overnight at 4 degrees C. in a tube rotator. […] Kinase reactions were run in a mixture of 45 μL of PI buffer (1 mM PI in kinase buffer), 10 μL of immunoprecipitated beads, 2 µL of inhibitors (dissolved and diluted in DMSO) or DMSO and 5 μL of [γ-^32P]-ATP (1 mM and 2 μCi/tube). The immunoprecipitates in PI buffer were pre-incubated with the drugs for 20 min prior the initiation of kinase reaction by adding ATP and the reactions were carried out for 30 min in 15 ml polypropolyne tubes. Reactions were terminated by addition of 3 ml of CHCl3:CH3OH:HCl (200:100:0.75) followed by 0.6 ml of 0.6N HCl to induce phase separation. The mixtures were vortexed, centrifuged at 2000 rpm for 2 min and the upper phase was discarded. To the lower phase was added 1.5 ml of CHCl3:CH3OH:0.6N HCl (3:48:47) and the mixture vortexed and centrifuged at 2000 rpm for 2 min. The lower phase was then transferred to counting vials and evaporated. Samples were counted in a scintillation beta counter after adding 5 ml of Instafluor (Perkin-Elmer).
PI-kinase assay: Compounds are tested in C.1.1. PI kinase assays as described by Shokat et al., “A membrane capture assay for lipid kinase activity.” Nat. Protoc.

T1 sequence (O02810 whole entry): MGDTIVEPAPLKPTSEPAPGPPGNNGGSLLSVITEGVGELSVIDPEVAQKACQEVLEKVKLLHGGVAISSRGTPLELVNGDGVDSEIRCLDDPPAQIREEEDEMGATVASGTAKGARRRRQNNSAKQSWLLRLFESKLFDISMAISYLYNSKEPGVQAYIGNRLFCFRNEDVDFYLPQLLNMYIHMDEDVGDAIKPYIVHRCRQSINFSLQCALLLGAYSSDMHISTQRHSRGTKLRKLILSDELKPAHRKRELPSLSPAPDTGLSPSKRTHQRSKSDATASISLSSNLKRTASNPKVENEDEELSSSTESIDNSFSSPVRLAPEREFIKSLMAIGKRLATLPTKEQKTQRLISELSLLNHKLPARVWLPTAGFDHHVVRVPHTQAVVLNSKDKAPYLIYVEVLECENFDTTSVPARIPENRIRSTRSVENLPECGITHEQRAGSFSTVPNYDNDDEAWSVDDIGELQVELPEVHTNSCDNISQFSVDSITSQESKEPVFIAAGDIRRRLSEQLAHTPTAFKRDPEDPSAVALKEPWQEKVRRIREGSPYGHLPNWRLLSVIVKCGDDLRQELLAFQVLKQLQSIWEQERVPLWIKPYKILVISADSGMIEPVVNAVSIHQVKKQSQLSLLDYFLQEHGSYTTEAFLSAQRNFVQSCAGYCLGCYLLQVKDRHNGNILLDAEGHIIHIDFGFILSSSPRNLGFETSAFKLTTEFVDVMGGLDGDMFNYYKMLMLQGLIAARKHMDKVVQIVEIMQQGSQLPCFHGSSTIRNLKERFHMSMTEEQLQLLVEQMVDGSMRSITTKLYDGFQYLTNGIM

Row | pIC50 | Structure (SMILES)
1 | > 7.00 | COc1ccc(-c2sc(NCC3CCCCC3)nc2C)cc1S(=O)(=O)NC1CCCC(O)C1 (centres unmarked) [Compound S-199, 5-[2-(cyclohexylmethylamino)-4-methyl-thiazol-5-yl]-N-(3-hydroxycyclohexyl)-2-methoxy-benzenesulfonamide]
2 | > 7.00 | COc1ccc(-c2sc(NC(C)(C)C)nc2C)cc1S(=O)(=O)NC1CCCC(O)C1 (centres unmarked) [Compound S-218, 5-[2-(tert-butylamino)-4-methyl-thiazol-5-yl]-N-(3-hydroxycyclohexyl)-2-methoxy-benzenesulfonamide]
3 | > 7.00 | COc1ccc(-c2sc(NC(=O)CC3CCCC3)nc2C)cc1S(=O)(=O)NC1CCCNC1 (centres unmarked) [Compound S-173, 2-cyclopentyl-N-[5-[4-methoxy-3-(3-piperidylsulfamoyl)phenyl]-4-methyl-thiazol-2-yl]acetamide; 2,2,2-trifluoroacetic acid]
4 | > 7.00 | COc1ccc(-c2sc(NCC(C)C)nc2C)cc1S(=O)(=O)NC1CCCC(O)C1 (centres unmarked) [Compound S-223, N-(3-hydroxycyclohexyl)-5-[2-(isobutylamino)-4-methyl-thiazol-5-yl]-2-methoxy-benzenesulfonamide; 2,2,2-trifluoroacetic acid]
5 | > 7.00 | COc1ccc(-c2sc(NC(C)(C)C)nc2C)cc1S(=O)(=O)NC1CCCNC1 (centres unmarked) [Compound S-220, 5-[2-(tert-butylamino)-4-methyl-thiazol-5-yl]-2-methoxy-N-(3-piperidyl)benzenesulfonamide]
6 | > 7.00 | Cc1ccc(-c2sc(NC(=O)CC3CCCC3)nc2C)cc1S(=O)(=O)NC1CCCNC1 (centres unmarked) [Compound S-189, 2-cyclopentyl-N-[4-methyl-5-[4-methyl-3-(3-piperidylsulfamoyl)phenyl]thiazol-2-yl]acetamide]
7 | > 7.00 | COc1ccc(-c2sc(NC(=O)CCC3CCCC3)nc2C)cc1S(=O)(=O)NC1CCC(O)CC1 (centres unmarked) [Compound S-156, 3-cyclopentyl-N-[5-[3-[(4-hydroxycyclohexyl)sulfamoyl]-4-methoxy-phenyl]-4-methyl-thiazol-2-yl]propanamide]

biological target: T2, PI3K p110g (Homo sapiens, UniProt P48736); assay: PI3K p110g kinase assay; format: biochemical; conditions: not given
T2 construct: purchased Millipore
Method: In the assays described here, p110α-p85 complex and p110γ were acquired from Millipore. Assays were performed with Lα-phosphatidylinositol (Avanti) as described in Knight et al. Nat Protoc. 2007; 2 (10):2459-66. Inhibitor series were prepared 10% DMSO as 5× stocks for the assay. Assays of HsVps34 were performed as described in Knight et al, except that the final assay buffer composition used was changed to 20 mM HEPES 7.5, 100 mM NaCl, 3 mM MgCl, 1 mg/mL PI and 44 nM hvps34 was used in the assay. […] COS-7 cells were cultured in 10 cm dishes and transfected at 70% confluence with 10 μg of plasmid DNA (HA-tagged bovine PI4KIIIβ, HA-tagged human PI4KIIIα) using Lipofectamine 2000 and 5 ml Opti-MEM following the manufacturer's instructions. After 5 hours the transfection medium was replaced with 10 ml complete DMEM. 36 hrs post transfection, cells were washed once with 5 ml PBS (pH 7.4) and lysed in 1 ml of lysis buffer (1) on ice. Lysates were collected by scraping and after 15 min they were centrifuged at 13,000 rpm for 10 min. To the lysates was added 200 μl of protein G Sepharose 4 fast flow beads that were prewashed with PBS and lysis buffer and 2 μg of anti-HA antibody. The tubes were then incubated overnight at 4 degrees C. in a tube rotator. The Sepharose beads in the lysate were washed twice with 150 mM NaCl in RIPA buffer, twice with RIPA buffer and once with kinase buffer (50 mM Tris/HCl, pH 7.5, 20 mM MgCl2, 1 mM EGTA, 1 mM PtdIns, 0.4% Triton X-100, 0.5 mg/mL BSA) and finally the beads were resuspended in 200 μL kinase buffer. Kinase reactions were run in a mixture of 45 μL of PI buffer (1 mM PI in kinase buffer), 10 μL of immunoprecipitated beads, 2 µL of inhibitors (dissolved and diluted in DMSO) or DMSO and 5 μL of [γ-^32P]-ATP (1 mM and 2 μCi/tube). The immunoprecipitates in PI buffer were pre-incubated with the drugs for 20 min prior the initiation of kinase reaction by adding ATP and the reactions were carried out for 30 min in 15 ml polypropolyne tubes. Reactions were terminated by addition of 3 ml of CHCl3:CH3OH:HCl (200:100:0.75) followed by 0.6 ml of 0.6N HCl to induce phase separation. The mixtures were vortexed, centrifuged at 2000 rpm for 2 min and the upper phase was discarded. To the lower phase was added 1.5 ml of CHCl3:CH3OH:0.6N HCl (3:48:47) and the mixture vortexed and centrifuged at 2000 rpm for 2 min. The lower phase was then transferred to counting vials and evaporated. Samples were counted in a scintillation beta counter after adding 5 ml of Instafluor (Perkin-Elmer).
PI-kinase assay: Compounds are tested in C.1.1. PI kinase assays as described by Shokat et al., “A membrane capture assay for lipid kinase activity.” Nat. Protoc. 2007; 2(10):2459-66.

T2 sequence (P48736 whole entry): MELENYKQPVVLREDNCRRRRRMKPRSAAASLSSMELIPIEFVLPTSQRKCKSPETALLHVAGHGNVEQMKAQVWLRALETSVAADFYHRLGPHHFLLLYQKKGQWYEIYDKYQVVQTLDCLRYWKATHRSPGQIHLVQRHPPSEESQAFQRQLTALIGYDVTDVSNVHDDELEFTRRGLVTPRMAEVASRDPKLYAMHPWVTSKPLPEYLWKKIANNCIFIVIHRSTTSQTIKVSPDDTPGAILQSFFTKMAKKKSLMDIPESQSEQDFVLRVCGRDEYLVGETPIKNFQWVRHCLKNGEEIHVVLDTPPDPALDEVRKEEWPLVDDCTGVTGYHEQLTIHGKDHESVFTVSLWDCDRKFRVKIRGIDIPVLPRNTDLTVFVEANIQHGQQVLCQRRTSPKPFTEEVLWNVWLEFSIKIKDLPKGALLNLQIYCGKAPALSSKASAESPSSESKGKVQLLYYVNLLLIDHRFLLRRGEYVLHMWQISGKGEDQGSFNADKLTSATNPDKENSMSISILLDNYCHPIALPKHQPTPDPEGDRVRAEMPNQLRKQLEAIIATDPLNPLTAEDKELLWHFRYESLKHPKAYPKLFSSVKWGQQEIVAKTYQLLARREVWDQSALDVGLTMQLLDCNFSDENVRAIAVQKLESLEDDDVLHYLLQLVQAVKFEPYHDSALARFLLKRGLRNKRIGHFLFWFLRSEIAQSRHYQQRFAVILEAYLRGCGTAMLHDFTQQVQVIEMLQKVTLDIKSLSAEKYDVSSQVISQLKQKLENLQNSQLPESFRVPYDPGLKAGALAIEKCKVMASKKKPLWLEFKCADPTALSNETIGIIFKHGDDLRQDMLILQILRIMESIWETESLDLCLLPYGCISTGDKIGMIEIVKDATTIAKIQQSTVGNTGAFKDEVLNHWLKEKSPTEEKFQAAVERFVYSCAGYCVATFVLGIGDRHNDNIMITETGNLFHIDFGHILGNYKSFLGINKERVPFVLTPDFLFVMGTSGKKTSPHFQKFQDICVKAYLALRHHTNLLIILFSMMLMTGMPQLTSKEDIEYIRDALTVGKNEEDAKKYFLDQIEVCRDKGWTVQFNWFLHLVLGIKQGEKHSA

Row | pIC50 | Structure (SMILES)
8 | < 5.00 | COc1ccc(-c2sc(NCC3CCCCC3)nc2C)cc1S(=O)(=O)NC1CC1 [Compound S-127, 5-[2-(cyclohexylmethylamino)-4-methyl-thiazol-5-yl]-N-cyclopropyl-2-methoxy-benzenesulfonamide]
9 | < 5.00 | COc1ccc(-c2sc(NC(=O)CC3CCCC3)nc2C)cc1S(=O)(=O)Nc1ccc(C)nc1 [Compound S-100, 2-cyclopentyl-N-[5-[4-methoxy-3-[(6-methyl-3-pyridyl)sulfamoyl]phenyl]-4-methyl-thiazol-2-yl]acetamide; 2,2,2-trifluoroacetic acid]
10 | < 5.00 | COc1ccc(-c2sc(NC(=O)CC3CCOCC3)nc2C)cc1S(=O)(=O)Nc1cc(C)cc(O)c1 [Compound S-169, N-[5-[3-[(3-hydroxy-5-methyl-phenyl)sulfamoyl]-4-methoxy-phenyl]-4-methyl-thiazol-2-yl]-2-tetrahydropyran-4-yl-acetamide]
11 | < 5.00 | COc1ccc(-c2sc(NC(=O)CC3CCOCC3)nc2C)cc1S(=O)(=O)Nc1ccc(F)cc1 [Compound S-170, N-[5-[3-[(4-fluorophenyl)sulfamoyl]-4-methoxy-phenyl]-4-methyl-thiazol-2-yl]-2-tetrahydropyran-4-yl-acetamide]
12 | < 5.00 | COc1ncc(-c2sc(NC(=O)CC3CCOCC3)nc2C)cc1S(=O)(=O)Nc1cccc(C(=O)O)c1 [Compound S-265]
13 | < 5.00 | COc1ccc(-c2sc(NC3CCCCC3)nc2C)cc1S(=O)(=O)NC1CCCC1 [Compound S-129, 5-[2-(cyclohexylamino)-4-methyl-thiazol-5-yl]-N-cyclopentyl-2-methoxy-benzenesulfonamide]
14 | 5.00 to 6.00 | COc1ncc(-c2sc(NC(=O)CC3CCOCC3)nc2C)cc1S(=O)(=O)Nc1cccc(O)c1 [Compound S-259]
15 | < 5.00 | COc1ccc(-c2sc(NCC3CCCCC3)nc2C)cc1S(=O)(=O)NCC1CCCCC1 [Compound S-128, N-(cyclohexylmethyl)-5-[2-(cyclohexylmethylamino)-4-methyl-thiazol-5-yl]-2-methoxy-benzenesulfonamide]
16 | 5.00 to 6.00 | COc1ncc(-c2sc(NC(=O)CC3CCOCC3)nc2C)cc1S(=O)(=O)N[C@H]1CC[C@@H](O)CC1 [Compound S-262]
17 | < 5.00 | COc1ccc(-c2sc(N[C@H](C)C3CCCCC3)nc2C)cc1S(=O)(=O)NC1CCNCC1 [Compound S-147, 5-[2-[[(1R)-1-cyclohexylethyl]amino]-4-methyl-thiazol-5-yl]-2-methoxy-N-(4-piperidyl)benzenesulfonamide]
18 | < 5.00 | COc1ccc(-c2sc(N[C@H](C)CC3CCCCC3)nc2C)cc1S(=O)(=O)NC1CCNCC1 [Compound S-145, 5-[2-[[(1R)-2-cyclohexyl-1-methyl-ethyl]amino]-4-methyl-thiazol-5-yl]-2-methoxy-N-(4-piperidyl)benzenesulfonamide]

Row | Structure (SMILES) | pIC50
19 | COc1ncc(-c2sc(NC(=O)CC3CCOCC3)nc2C)cc1S(=O)(=O)Nc1ccc(O)cc1 [Compound S-261] | 6.00 to 7.00

tested on: HCV genotype 2a; assay: microbe, parasite or virus in culture; format: cell-based; conditions: Hepatitis C virus, Huh7.5, read-out: HCV2a EC50

Row | Structure (SMILES) | pEC50
20 | COc1ccc(NS(=O)(=O)c2cc(-c3sc(NC4CCCCC4)nc3C)ccc2OC)c(C)c1 [Compound S-66, 5-[2-(cyclohexylamino)-4-methyl-thiazol-5-yl]-2-methoxy-N-(4-methoxy-2-methyl-phenyl)benzenesulfonamide; 2,2,2-trifluoroacetic acid] | 5.00 to 6.00
21 | COc1ncc(-c2sc(NC(=O)CC3CCOCC3)nc2C)cc1S(=O)(=O)Nc1ccc(O)cc1 [Compound S-261] | 7.00 to 9.00

tested on: HRV; assay: Rhinovirus antiviral assay; format: cell-based; conditions: Human rhinovirus sp.

Row | pEC50 | Structure (SMILES)
22 | > 9.00 | COc1ccc(NS(=O)(=O)c2cc(-c3sc(NC4CCCCCC4)nc3C)ccc2OC)c(C)c1 [Compound S-89, 5-[2-(cycloheptylamino)-4-methyl-thiazol-5-yl]-2-methoxy-N-(4-methoxy-2-methyl-phenyl)benzenesulfonamide; 2,2,2-trifluoroactic acid]
23 | > 9.00 | COc1ccc(-c2sc(NC3CCCCC3)nc2C)cc1S(=O)(=O)Nc1ccc(O)cc1C [Compound S-106, 5-[2-(cyclohexylamino)-4-methyl-thiazol-5-yl]-N-(4-hydroxy-2-methyl-phenyl)-2-methoxy-benzenesulfonamide]
24 | > 9.00 | COc1ccc(NS(=O)(=O)c2cc(-c3sc(NC(=O)CC4CCCCC4)nc3C)ccc2OC)c(C)c1 [Compound S-85, 2-cyclohexyl-N-[5-[4-methoxy-3-[(4-methoxy-2-methyl-phenyl)sulfamoyl]phenyl]-4-methyl-thiazol-2-yl]acetamide]

Row | Structure (SMILES) | pEC50
25 | COc1ccc(NS(=O)(=O)c2cc(-c3sc(NC4CCCCC4)nc3C)ccc2OC)c(C)c1 [Compound S-66, 5-[2-(cyclohexylamino)-4-methyl-thiazol-5-yl]-2-methoxy-N-(4-methoxy-2-methyl-phenyl)benzenesulfonamide; 2,2,2-trifluoroacetic acid] | > 9.00
26 | COc1ncc(-c2sc(NC(=O)CC3CCOCC3)nc2C)cc1S(=O)(=O)Nc1ccc(O)cc1 [Compound S-261] | 5.00 to 6.00
